Among the data in BindingDB's records for doi:10.1016/j.bmcl.2006.12.025 (Pharmacopeia Drug Discovery, 2007) are IC50 values, retold here.

SMILES strings stand for the structures.

Chain of Prostacyclin receptor (P43119 whole entry): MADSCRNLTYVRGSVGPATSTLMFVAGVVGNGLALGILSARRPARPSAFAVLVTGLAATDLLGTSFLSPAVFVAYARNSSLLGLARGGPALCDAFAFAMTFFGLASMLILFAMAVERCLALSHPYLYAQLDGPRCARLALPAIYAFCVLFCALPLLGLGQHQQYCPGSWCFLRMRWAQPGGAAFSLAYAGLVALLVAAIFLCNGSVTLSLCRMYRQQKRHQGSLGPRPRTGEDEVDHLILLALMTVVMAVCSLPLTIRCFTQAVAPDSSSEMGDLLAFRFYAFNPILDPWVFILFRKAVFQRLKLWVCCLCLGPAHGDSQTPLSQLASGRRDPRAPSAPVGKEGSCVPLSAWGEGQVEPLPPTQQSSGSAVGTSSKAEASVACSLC

In one assay the target is Prostacyclin receptor (Homo sapiens, UniProt P43119). The assay can be described thus: IP Receptor Filter Binding Assay and cAMP Assay. The conditions noted are these: pH 7.4; 22 °C. From the text:
IP receptor binding activity was quantified via a filter binding assay measuring displacement of [3H]-Iloprost binding to human platelet membranes. Raw data were fit to the […] to calculate IC50 values. EC50/IC50 values were obtained from functional antagonism assay by measuring the inhibition of cAMP production induced by Iloprost in human erythroleukemia (HEL) cells using a Perkin-Elmer LANCETM cAMP detection kit.
The IC50 is the concentration at which inhibition is half-maximal. Consider `CC(=O)Nc1cccc(-c2ccc(Cc3ocnc3C(=O)NC(C)c3ccccc3)cc2)c1` (racemic) [5-{[4-(3-acetamidophenyl)phenyl]methyl}-N-(1-phenylethyl)-1,3-oxazole-4-carboxamide], for which the concentration for half-maximal inhibition (IC50) turned out to be 278 nM.

The compound `CC(=O)Nc1cccc(-c2ccc(Cc3ocnc3C(=O)NCCc3ccccc3)cc2)c1` [5-{[4-(3-acetamidophenyl)phenyl]methyl}-N-(2-phenylethyl)-1,3-oxazole-4-carboxamide] displayed an IC50 of 138 nM.

With `CC(=O)Nc1cccc(-c2ccc(Cc3ocnc3C(=O)NC(C)C)cc2)c1` [5-{[4-(3-acetamidophenyl)phenyl]methyl}-N-(propan-2-yl)-1,3-oxazole-4-carboxamide], the IC50 was found to be 3580 nM.

For `CC(=O)Nc1cccc(-c2ccc(Cc3ocnc3C(=O)NCCc3ccccn3)cc2)c1` [5-{[4-(3-acetamidophenyl)phenyl]methyl}-N-[2-(pyridin-2-yl)ethyl]-1,3-oxazole-4-carboxamide], the IC50 is 1010 nM.

Take `CC(=O)Nc1cccc(-c2ccc(Cc3ocnc3C(=O)NCCc3cccnc3)cc2)c1` [5-{[4-(3-acetamidophenyl)phenyl]methyl}-N-[2-(pyridin-3-yl)ethyl]-1,3-oxazole-4-carboxamide]: the half-inhibitory concentration (IC50) came out at 741 nM.

In turn, `CC(=O)Nc1cccc(-c2ccc(Cc3ocnc3C(=O)NCCc3ccncc3)cc2)c1` [5-{[4-(3-acetamidophenyl)phenyl]methyl}-N-[2-(pyridin-4-yl)ethyl]-1,3-oxazole-4-carboxamide] displayed a half-inhibitory concentration (IC50) of 476 nM.

The compound `CC(=O)Nc1cccc(-c2ccc(Cc3ocnc3C(=O)N[C@H]3C[C@@H]3c3ccccc3)cc2)c1` [5-{[4-(3-acetamidophenyl)phenyl]methyl}-N-[(1S,2R)-2-phenylcyclopropyl]-1,3-oxazole-4-carboxamide] had a concentration for half-maximal inhibition (IC50) of 358 nM.

`CC(=O)Nc1cccc(-c2ccc(Cc3ocnc3C(=O)NC[C@H](C)c3ccccc3)cc2)c1` [5-{[4-(3-acetamidophenyl)phenyl]methyl}-N-[(2R)-2-phenylpropyl]-1,3-oxazole-4-carboxamide] came in with an IC50 of 51 nM.

`CC(=O)Nc1cccc(-c2ccc(Cc3ocnc3C(=O)NC[C@@H](C)c3ccccc3)cc2)c1` [5-{[4-(3-acetamidophenyl)phenyl]methyl}-N-[(2S)-2-phenylpropyl]-1,3-oxazole-4-carboxamide] yielded an IC50 of 296 nM.

In turn, `CNC(=O)c1ncoc1Cc1ccc(-c2cccc(NC(C)=O)c2)cc1` [5-{[4-(3-acetamidophenyl)phenyl]methyl}-N-methyl-1,3-oxazole-4-carboxamide] yielded a half-maximal inhibitory concentration (IC50) of 3310 nM.

In turn, `CC(=O)Nc1cccc(-c2ccc(Cc3ocnc3C(=O)N(C)CCc3ccccc3)cc2)c1` [5-{[4-(3-acetamidophenyl)phenyl]methyl}-N-methyl-N-(2-phenylethyl)-1,3-oxazole-4-carboxamide] came in with a half-inhibitory concentration (IC50) of 2130 nM.

In the case of `CC(=O)Nc1cccc(-c2ccc(Cc3ocnc3C(=O)Nc3ccccc3)cc2)c1` [5-{[4-(3-acetamidophenyl)phenyl]methyl}-N-phenyl-1,3-oxazole-4-carboxamide], the IC50 is 828 nM.

The compound `CC(=O)Nc1cccc(-c2ccc(Cc3ocnc3C(=O)N[C@H](Cc3ccccc3)C(=O)O)cc2)c1` [(2R)-2-[(5-{[4-(3-acetamidophenyl)phenyl]methyl}-1,3-oxazol-4-yl)formamido]-3-phenylpropanoic acid] came in with an IC50 of 831 nM.

Compound `CC(=O)Nc1cccc(-c2ccc(Cc3ocnc3C(=O)N[C@@H](Cc3ccccc3)C(=O)O)cc2)c1` [(2S)-2-[(5-{[4-(3-acetamidophenyl)phenyl]methyl}-1,3-oxazol-4-yl)formamido]-3-phenylpropanoic acid] had an IC50 of 16 nM.

`CC(=O)Nc1cccc(-c2ccc(Cc3ocnc3C(=O)NCCN(C)C)cc2)c1` [N-[2-(dimethylamino)ethyl]-5-{[4-(3-acetamidophenyl)phenyl]methyl}-1,3-oxazole-4-carboxamide] came in with a 50% inhibitory concentration (IC50) of 3310 nM.

`CC(=O)Nc1cccc(-c2ccc(Cc3ocnc3C(=O)NCc3ccccc3)cc2)c1` [N-benzyl-5-{[4-(3-acetamidophenyl)phenyl]methyl}-1,3-oxazole-4-carboxamide] had a 50% inhibitory concentration (IC50) of 66 nM.

Still in this assay, the particulars now being: pH 7.4; 22 °C; read-out: IC50.
With `CC(=O)Nc1cccc(-c2ccc(Cc3ocnc3C(=O)NC(C)C)cc2)c1` [5-{[4-(3-acetamidophenyl)phenyl]methyl}-N-(propan-2-yl)-1,3-oxazole-4-carboxamide], the concentration for half-maximal inhibition (IC50) amounted to 12400 nM.
